Molecular target: T1, PI3Kδ (Homo sapiens, UniProt O00329)
T1 construct: Full length p110 subunits of PI3k α, β and δ, N-terminally labeled with polyHis tag; polyHis (N); made in house; host or cells: Sf9 insect cells (baculovirus)
Test: PI3Kδ Alphascreen assay
Format: biochemical

T1 sequence (O00329 whole entry): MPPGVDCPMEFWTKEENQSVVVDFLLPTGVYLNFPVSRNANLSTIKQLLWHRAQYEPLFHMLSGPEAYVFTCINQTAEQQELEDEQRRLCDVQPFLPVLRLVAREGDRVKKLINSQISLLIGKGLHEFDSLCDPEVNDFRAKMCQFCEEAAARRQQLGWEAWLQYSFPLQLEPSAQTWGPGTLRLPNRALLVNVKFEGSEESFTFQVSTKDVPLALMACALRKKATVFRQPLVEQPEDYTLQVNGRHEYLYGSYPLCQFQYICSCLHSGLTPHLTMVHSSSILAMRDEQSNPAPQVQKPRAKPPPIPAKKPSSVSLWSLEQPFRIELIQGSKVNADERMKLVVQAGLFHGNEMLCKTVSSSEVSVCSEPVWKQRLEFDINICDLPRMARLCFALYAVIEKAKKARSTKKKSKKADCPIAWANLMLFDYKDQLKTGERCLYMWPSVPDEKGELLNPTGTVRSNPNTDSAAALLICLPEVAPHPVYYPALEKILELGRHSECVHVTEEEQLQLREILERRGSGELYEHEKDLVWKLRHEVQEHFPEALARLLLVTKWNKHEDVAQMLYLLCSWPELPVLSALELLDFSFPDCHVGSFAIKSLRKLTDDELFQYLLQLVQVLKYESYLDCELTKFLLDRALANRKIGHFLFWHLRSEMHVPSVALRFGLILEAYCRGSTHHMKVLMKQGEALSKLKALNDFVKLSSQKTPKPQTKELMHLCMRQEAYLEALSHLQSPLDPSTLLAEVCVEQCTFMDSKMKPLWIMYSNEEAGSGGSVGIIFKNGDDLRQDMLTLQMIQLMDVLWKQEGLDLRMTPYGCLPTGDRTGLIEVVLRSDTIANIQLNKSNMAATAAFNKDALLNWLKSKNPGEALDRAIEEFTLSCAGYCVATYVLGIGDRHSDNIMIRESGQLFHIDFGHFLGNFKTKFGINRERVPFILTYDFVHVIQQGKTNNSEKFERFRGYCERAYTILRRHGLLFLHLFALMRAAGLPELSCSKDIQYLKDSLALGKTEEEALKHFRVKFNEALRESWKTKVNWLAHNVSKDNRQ
T1 sequence (P27986 whole entry partner): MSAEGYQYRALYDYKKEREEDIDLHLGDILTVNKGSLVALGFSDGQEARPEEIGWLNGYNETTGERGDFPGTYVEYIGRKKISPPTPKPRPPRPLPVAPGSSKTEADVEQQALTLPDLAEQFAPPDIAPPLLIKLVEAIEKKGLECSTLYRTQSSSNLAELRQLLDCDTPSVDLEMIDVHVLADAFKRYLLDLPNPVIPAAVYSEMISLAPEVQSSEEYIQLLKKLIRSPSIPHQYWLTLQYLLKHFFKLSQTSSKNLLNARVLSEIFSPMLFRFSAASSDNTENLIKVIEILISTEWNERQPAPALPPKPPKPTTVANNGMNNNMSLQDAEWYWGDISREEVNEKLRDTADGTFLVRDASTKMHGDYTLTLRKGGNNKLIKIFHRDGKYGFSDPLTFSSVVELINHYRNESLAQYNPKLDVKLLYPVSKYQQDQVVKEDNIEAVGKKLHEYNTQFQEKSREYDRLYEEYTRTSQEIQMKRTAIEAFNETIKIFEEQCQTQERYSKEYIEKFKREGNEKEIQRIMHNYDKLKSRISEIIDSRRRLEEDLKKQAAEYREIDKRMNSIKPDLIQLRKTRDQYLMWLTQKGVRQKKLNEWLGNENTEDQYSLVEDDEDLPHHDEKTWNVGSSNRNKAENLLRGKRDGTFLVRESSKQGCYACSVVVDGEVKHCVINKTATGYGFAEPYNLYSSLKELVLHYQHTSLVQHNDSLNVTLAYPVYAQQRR

SMILES | Ki [µM]
Cc1c(N2CCN(C(=O)c3cnco3)CC2)nc2cc(F)cc(F)c2c1Nc1cncc(N2CCOCC2)c1 [5,7-difluoro-3-methyl-N-(5-(4-morpholinyl)-3-pyridinyl)-2-(4-(1,3-oxazol-5-ylcarbonyl)-1-piperazinyl)-4-quinolinamine] | 0.048
Cc1c(-c2ccccc2[S@+](C)[O-])nc2cc(F)cc(F)c2c1Nc1cc(N2CCOCC2)cnc1N1CCOCC1 [N-(2,5-di-4-morpholinyl-3-pyridinyl)-5,7-difluoro-3-methyl-2-(2-((S)-methylsulfinyl)phenyl)-4-quinolinamine] | 0.051
Cc1ccc(-c2nc3cc(F)cc(F)c3c(Nc3cc(N4CCOCC4)cnc3N3CCOCC3)c2C)cn1 [N-(2,5-di-4-morpholinyl-3-pyridinyl)-5,7-difluoro-3-methyl-2-(6-methyl-3-pyridinyl)-4-quinolinamine] | 0.018
CCOc1ccc(-c2ncc(N3CCOCC3)cc2Nc2c(C)c(-c3ccccn3)nc3cc(F)cc(F)c23)cn1 [N-(5,7-difluoro-3-methyl-2-(2-pyridinyl)-4-quinolinyl)-6′-ethoxy-5-(4-morpholinyl)-2,3′-bipyridin-3-amine] | 0.00262
CCOC(=O)N1CCN(c2nc3cc(F)cc(F)c3c(Nc3cncc(N4CCOCC4)c3)c2C)CC1 [ethyl 4-(5,7-difluoro-3-methyl-4-((5-(4-morpholinyl)-3-pyridinyl)amino)-2-quinolinyl)-1-piperazinecarboxylate] | 0.0455
Cc1c(N2CCOCC2)nc2cc(F)cc(F)c2c1Nc1cncc(N2CCOCC2)c1 [5,7-difluoro-3-methyl-2-(4-morpholinyl)-N-(5-(4-morpholinyl)-3-pyridinyl)-4-quinolinamine] | 0.0557
Cc1c(-c2ccnc(N3CCNCC3)c2)nc2cc(F)cc(F)c2c1Nc1cc(N2CCOCC2)cnc1N1CCOCC1 [N-(2,5-di-4-morpholinyl-3-pyridinyl)-5,7-difluoro-3-methyl-2-(2-(1-piperazinyl)-4-pyridinyl)-4-quinolinamine] | 0.0347
Cc1c(N2CCN(S(=O)(=O)c3ccccc3F)CC2)nc2cc(F)cc(F)c2c1Nc1cncc(N2CCOCC2)c1 [5,7-difluoro-2-(4-((2-fluorophenyl)sulfonyl)-1-piperazinyl)-3-methyl-N-(5-(4-morpholinyl)-3-pyridinyl)-4-quinolinamine] | 0.0664
Cc1ccnc(-c2nc3c(Cl)cccc3c(Nc3cc(N4CCOCC4)cnc3N3CCOCC3)c2C)c1 [8-chloro-N-(2,5-di-4-morpholinyl-3-pyridinyl)-3-methyl-2-(4-methyl-2-pyridinyl)-4-quinolinamine] | 0.00949
Cc1c(-c2ccccn2)nc2cc(F)cc(F)c2c1Nc1cc(N2CCOCC2)cnc1-c1ccc(O)cc1 [4-(3-((5,7-difluoro-3-methyl-2-(2-pyridinyl)-4-quinolinyl)-amino)-5-(4-morpholinyl)-2-pyridinyl)phenol] | 0.000285
Cc1c(-c2ccccn2)nc2cc(F)cc(F)c2c1Nc1cc(N2CCOCC2)cnc1Cl [N-(2-chloro-5-(4-morpholinyl)-3-pyridinyl)-5,7-difluoro-3-methyl-2-(2-pyridinyl)-4-quinolinamine] | 0.00426
CCOc1ccc(-c2nc3cc(F)cc(F)c3c(Nc3cc(N4CCOCC4)cnc3N3CCOCC3)c2C)cn1 [N-(2,5-di-4-morpholinyl-3-pyridinyl)-2-(6-ethoxy-3-pyridinyl)-5,7-difluoro-3-methyl-4-quinolinamine] | 0.0255
Cc1c(N2CCC[C@@H]2C(=O)N(C)C)nc2cc(F)cc(F)c2c1Nc1cncc(N2CCOCC2)c1 [1-(5,7-difluoro-3-methyl-4-((5-(4-morpholinyl)-3-pyridinyl)-amino)-2-quinolinyl)-N,N-dimethyl-D-prolinamide] | 0.0103
COc1cc(-c2ncc(N3CCOCC3)cc2Nc2c(C)c(-c3ccccn3)nc3cc(F)cc(F)c23)ccn1 [N-(5,7-difluoro-3-methyl-2-(2-pyridinyl)-4-quinolinyl)-2′-methoxy-5-(4-morpholinyl)-2,4′-bipyridin-3-amine] | 0.00793
CCS(=O)(=O)N1CCN(c2nc3cc(F)cc(F)c3c(Nc3cncc(N4CCOCC4)c3)c2C)CC1 [2-(4-(ethylsulfonyl)-1-piperazinyl)-5,7-difluoro-3-methyl-N-(5-(4-morpholinyl)-3-pyridinyl)-4-quinolinamine] | 0.0884
Cc1ccnc(-c2nc3cc(F)cc(F)c3c(Nc3cncc(N4CCOCC4)c3)c2C)c1 [5,7-difluoro-3-methyl-2-(4-methyl-2-pyridinyl)-N-(5-(4-morpholinyl)-3-pyridinyl)-4-quinolinamine] | 0.0192
Cc1c(-c2cc(OC(F)(F)F)ccc2S(C)(=O)=O)nc2cc(F)cc(F)c2c1Nc1cncc(N2CCOCC2)c1 [5,7-difluoro-3-methyl-2-(2-(methylsulfonyl)-5-(trifluoromethoxy)phenyl)-N-(5-(4-morpholinyl)-3-pyridinyl)-4-quinolinamine] | 0.00418
Cc1c(-c2ccccn2)nc2cc(F)cc(F)c2c1Nc1cncc(C2CCOCC2)c1 [5,7-difluoro-3-methyl-2-(2-pyridinyl)-N-(5-(tetrahydro-2H-pyran-4-yl)-3-pyridinyl)-4-quinolinamine] | 0.209

SMILES | Ki [µM]
Cc1c(-c2ccc(N3CCCC3)nc2)nc2cc(F)cc(F)c2c1Nc1cc(N2CCOCC2)cnc1N1CCOCC1 [N-(2,5-di-4-morpholinyl-3-pyridinyl)-5,7-difluoro-3-methyl-2-(6-(1-pyrrolidinyl)-3-pyridinyl)-4-quinolinamine] | 0.0468
Cc1c(-c2ccccc2S(C)(=O)=O)nc2cc(F)cc(F)c2c1Nc1cc(N2CCOCC2)ccc1S(C)(=O)=O [5,7-difluoro-3-methyl-N-(2-(methylsulfonyl)-5-(4-morpholinyl)-phenyl)-2-(2-(methylsulfonyl)phenyl)-4-quinolinamine] | 0.000827
Cc1c(-c2ccccn2)nc2cccc(F)c2c1Nc1cc(N2CCOCC2)ccc1S(C)(=O)=O [5-fluoro-3-methyl-N-(2-(methylsulfonyl)-5-(4-morpholinyl)-phenyl)-2-(2-pyridinyl)-4-quinolinamine] | 0.000485
Cc1c(N2CCN(C)CC2)nc2cc(F)cc(F)c2c1Nc1cc(N2CCOCC2)cnc1N1CCOCC1 [N-(2,5-di-4-morpholinyl-3-pyridinyl)-5,7-difluoro-3-methyl-2-(4-methyl-1-piperazinyl)-4-quinolinamine] | 0.012
Cc1c(-c2cc([N+](=O)[O-])ccc2F)nc2cc(F)ccc2c1Nc1cncc(N2CCOCC2)c1 [7-fluoro-2-(2-fluoro-5-nitrophenyl)-3-methyl-N-(5-(4-morpholinyl)-3-pyridinyl)-4-quinolinamine] | 0.0475
Cc1ccc(S(C)(=O)=O)c(-c2nc3cc(F)cc(F)c3c(Nc3cncc(N4CCOCC4)c3)c2C)c1 [5,7-difluoro-3-methyl-2-(5-methyl-2-(methylsulfonyl)phenyl)-N-(5-(4-morpholinyl)-3-pyridinyl)-4-quinolinamine] | 0.00135
COc1cc(-c2ncc(N3CCOCC3)cc2Nc2c(C)c(-c3ccccn3)nc3cc(F)cc(F)c23)c(F)cn1 [N-(5,7-difluoro-3-methyl-2-(2-pyridinyl)-4-quinolinyl)-5′-fluoro-2′-methoxy-5-(4-morpholinyl)-2,4′-bipyridin-3-amine] | 0.0235
Cc1c(-c2ccccn2)nc2c(C#N)cccc2c1Nc1cc(N2CCOCC2)cnc1N1CCOCC1 [4-((2,5-di-4-morpholinyl-3-pyridinyl)amino)-3-methyl-2-(2-pyridinyl)-8-quinolinecarbonitrile] | 0.0544
Cc1c(-c2ccnc(N3CCN(C)CC3)c2)nc2cc(F)cc(F)c2c1Nc1cc(N2CCOCC2)cnc1N1CCOCC1 [N-(2,5-di-4-morpholinyl-3-pyridinyl)-5,7-difluoro-3-methyl-2-(2-(4-methyl-1-piperazinyl)-4-pyridinyl)-4-quinolinamine] | 0.015
Cc1c(-c2ccc(N3CCNCC3)nc2)nc2cc(F)cc(F)c2c1Nc1cc(N2CCOCC2)cnc1N1CCOCC1 [N-(2,5-di-4-morpholinyl-3-pyridinyl)-5,7-difluoro-3-methyl-2-(6-(1-piperazinyl)-3-pyridinyl)-4-quinolinamine] | 0.0563
Cc1c(-c2ccccc2F)nc2cc(F)cc(F)c2c1Nc1cc(N2CCOCC2)cnc1N1CCOCC1 [N-(2,5-di-4-morpholinyl-3-pyridinyl)-5,7-difluoro-2-(2-fluorophenyl)-3-methyl-4-quinolinamine] | 0.00622
COc1ccccc1-c1ncc(N2CCOCC2)cc1Nc1c(C)c(-c2ccccn2)nc2cc(F)cc(F)c12 [5,7-difluoro-N-(2-(2-methoxyphenyl)-5-(4-morpholinyl)-3-pyridinyl)-3-methyl-2-(2-pyridinyl)-4-quinolinamine] | 0.00853
CCN1CCN(c2nc3cc(F)cc(F)c3c(Nc3cncc(N4CCOCC4)c3)c2C)CC1 [2-(4-ethyl-1-piperazinyl)-5,7-difluoro-3-methyl-N-(5-(4-morpholinyl)-3-pyridinyl)-4-quinolinamine] | 0.0153
CCCN1CCN(c2nc3cc(F)cc(F)c3c(Nc3cncc(N4CCOCC4)c3)c2C)CC1=O [4-(5,7-difluoro-3-methyl-4-((5-(4-morpholinyl)-3-pyridinyl)-amino)-2-quinolinyl)-1-propyl-2-piperazinone] | 0.00918
Cc1c(N2CCC[C@@H]2C(=O)O)nc2cc(F)cc(F)c2c1Nc1cncc(N2CCOCC2)c1 [1-(5,7-difluoro-3-methyl-4-((5-(4-morpholinyl)-3-pyridinyl)-amino)-2-quinolinyl)-D-proline] | 0.0599
Cc1ncccc1-c1nc2cc(F)cc(F)c2c(Nc2cc(N3CCOCC3)cnc2N2CCOCC2)c1C [N-(2,5-di-4-morpholinyl-3-pyridinyl)-5,7-difluoro-3-methyl-2-(2-methyl-3-pyridinyl)-4-quinolinamine] | 0.00171
Cc1c(N2CCNCC2)nc2cc(F)cc(F)c2c1Nc1cncc(N2CCOCC2)c1 [5,7-difluoro-3-methyl-N-(5-(4-morpholinyl)-3-pyridinyl)-2-(1-piperazinyl)-4-quinolinamine] | 0.0871
Cc1c(N2CCN(C(=O)NC(C)C)CC2)nc2cc(F)cc(F)c2c1Nc1cncc(N2CCOCC2)c1 [4-(5,7-difluoro-3-methyl-4-((5-(4-morpholinyl)-3-pyridinyl)-amino)-2-quinolinyl)-N-(1-methylethyl)-1-piperazinecarboxamide] | 0.0506
